Data as given in patent publication US7091357B2, “Chain-modified pyridino-N substituted nicotine compounds for use in the treatment of CNS pathologies” (University of Kentucky Research Foundation, priority 2001, dated 2006).
Structures can show the parent of a compound that is named as a salt. Where two headings read alike, the source gives them in different places.

Legend:
[1] = test system: putative α3β2* receptor subtype; test: Inhibition of S-(−)-NIC-evoked [3H]-DA release from rat striatal slices; type: cell-based; settings: rat striatal slices superfused 60 minutes with analog prior to NIC (10 μM)
Method: Rat striatal slices (500 μm thickness, 6–8 mg wet weight) were incubated for 30 minutes in Kreb's buffer (118 mM NaCl, 4.7 mMKCl, 1.2 mM MgCl2, 1.0 mM NaH2PO4, 1.3 mM CaCl2, 11.1 mM glucose, 25 mM NaHCO3, 0.11 mM L-ascorbic acid, and 0.004 mM disodium EDTA; pH 7.4, and saturated with 95% O2/5% CO2) in a metabolic shaker at 34° C. Slices were rinsed with 15 ml of fresh buffer and incubated for an additional 30 minutes in fresh buffer containing 0.1 μM [^3]H-DA (6 slices/3 ml). Subsequently, slices were rinsed with 15 ml of fresh buffer and transferred to a glass superfusion chamber. Slices were superfused (1.0 ml/min) for 60 minutes with Kreb's buffer containing nomifensine (10 μM) and pargyline (10 μM) and maintained at 34° C., pH 7.4, with continual aeration (95% O2/5% CO2). Two five minute samples (5 ml each) were collected to determine basal outflow of [^3H]-DA. […] Subsequently, S-(−)-nicotine (10 μM) was added to the buffer and an additional 12 consecutive five minute samples were collected. At the end of the experiment, each slice was solubilized and the [^3H] content of the tissue determined.
Radioactivity in the superfusate and tissue samples was determined by liquid scintillation spectroscopy. Fractional release for each sample was calculated by dividing by the total tritium present in the tissue at the time of sample collection, and was expressed as a percentage of total tissue tritium. […] The sum of the increase in collected tritium resulting from either exposure to the test-compound or exposure to nicotine in the absence and presence of the test compound equaled total [^3H]overflow. [^3H]Overflow was calculated by subtracting the [^3H]outflow during an equivalent period of prestimulation from the values in samples collected during and after drug exposure. Inasmuch as the radiolabelled compounds were not separated and identified, the tritium collected in superfusate is referred to as either [^3H]outflow or [^3 H]overflow, rather than as [^3H]-DA. [^3H]Overflow primarily represents [^3H]-DA in the presence of nomifensine and pargyline in the superfusion buffer.
In these experiments, striatal slices were superfused for 60 minutes with various concentrations of the analogs prior to NIC (10 μM) exposure. Antagonist activity was evaluated by comparing the NIC-evoked [^3H]overflow in the absence and presence of the analogs.

[2] = biological target: T1, Rat Striatal Nicotinic Acetylcholine Receptors (Rattus norvegicus, UniProt P09483+P12390); test: [3H]-NIC binding assay, rat striatal membranes; settings: 3 nM [3H]-NIC, at least 3 independent experiments, read-out: Ki, displacement of [3H]-NIC binding
T1 construct: from tissue; host or cells: rat striatal membranes
T1 sequence (P09483 31-630): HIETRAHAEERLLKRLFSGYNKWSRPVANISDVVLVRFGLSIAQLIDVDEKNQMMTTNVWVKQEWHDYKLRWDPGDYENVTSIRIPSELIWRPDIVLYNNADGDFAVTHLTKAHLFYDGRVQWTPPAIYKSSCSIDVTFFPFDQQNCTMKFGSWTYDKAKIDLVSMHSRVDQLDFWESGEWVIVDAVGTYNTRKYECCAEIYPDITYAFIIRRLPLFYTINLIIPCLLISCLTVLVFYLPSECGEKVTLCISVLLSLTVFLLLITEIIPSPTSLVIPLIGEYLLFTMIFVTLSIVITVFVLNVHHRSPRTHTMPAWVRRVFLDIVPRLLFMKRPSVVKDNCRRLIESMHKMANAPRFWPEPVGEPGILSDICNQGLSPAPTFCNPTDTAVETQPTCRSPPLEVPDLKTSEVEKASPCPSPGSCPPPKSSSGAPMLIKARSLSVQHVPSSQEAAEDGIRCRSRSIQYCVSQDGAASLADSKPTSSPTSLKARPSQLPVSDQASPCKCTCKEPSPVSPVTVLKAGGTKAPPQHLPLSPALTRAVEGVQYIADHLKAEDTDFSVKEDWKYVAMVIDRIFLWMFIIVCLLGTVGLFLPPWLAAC
T1 sequence (P12390 25-500): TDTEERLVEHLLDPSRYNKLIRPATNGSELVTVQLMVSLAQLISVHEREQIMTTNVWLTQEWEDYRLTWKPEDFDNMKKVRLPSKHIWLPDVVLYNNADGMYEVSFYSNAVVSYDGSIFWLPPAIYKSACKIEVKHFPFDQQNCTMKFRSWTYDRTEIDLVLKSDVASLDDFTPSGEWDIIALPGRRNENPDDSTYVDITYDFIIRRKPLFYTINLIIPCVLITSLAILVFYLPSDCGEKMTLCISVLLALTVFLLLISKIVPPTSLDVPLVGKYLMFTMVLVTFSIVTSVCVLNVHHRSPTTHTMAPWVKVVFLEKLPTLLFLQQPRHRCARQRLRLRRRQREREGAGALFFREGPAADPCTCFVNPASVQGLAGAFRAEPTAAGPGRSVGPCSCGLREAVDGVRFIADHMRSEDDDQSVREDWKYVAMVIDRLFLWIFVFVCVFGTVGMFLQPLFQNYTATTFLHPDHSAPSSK
Method: Striata from two rats were dissected, pooled, and homogenized with a Tekmar polytron in 10 volumes of ice-cold modified Krebs-HEPES buffer (20 mM HEPES, 118 mM NaCl, 4.8 mM KCl, 2.5 mM CaCl2, 1.2 mM MgSO4, adjusted to pH 7.5). The homogenates were incubated at 37° C. for 5 minutes and centrifuged at 15,000 g for 20 minutes. The pellet was resuspended in 10 volumes of ice-cold MilliQ water, incubated for 5 minutes at 37° C., and centrifuged at 15,000 g for 20 mm. The second pellet was then resuspended in 10 volumes of fresh ice-cold 10% Krebs-HEPES buffer, incubated at 37° C., and centrifuged at 15,000 g for 20 minutes. The latter sequence of resuspension, incubation, and rentrifugation was repeated. The pellet was frozen under fresh 10% Krebs-HEPES buffer and stored at −40° C. until assayed. Upon assay, the pellet was resuspended in the Krebs-HEPES buffer, incubated at 37° C. for 5 minutes, and centrifuged at 15,000 g for 20 mm. The final pellet was resuspended in 3.6 ml ice-cold MilliQ water which provided for approximately 200 μg protein per 100 μl aliquot. Competition assays were performed in triplicate in a final volume of 200 μl Krebs-HEPES buffer containing 250 mmol Tris buffer (pH 7.5 at 4° C.). […] After a 90 min incubation at 4° C., reactions were terminated by dilution of the samples with 3 ml of ice-cold Krebs-HEPES buffer followed immediately by filtration through Whatman GF/B glass fiber filters (presoaked in 0.5% polyethyleneimine) using a Brandel Cell Harvester. Filters were rinsed three times with 3 ml of ice-cold Krebs-HEPES buffer, transferred to scintillation vials, and 5 ml scintillation cocktail (Research Products International Corp., Mt. Prospect, Ill.) added. Nonspecific binding determined in triplicate was defined as binding in the presence of 10 μM NIC. Binding parameters were determined using the weighted, least squares nonlinear regression analysis.

[3] = biological target: T2, α7 neuronal nicotinic acetylcholine receptor subtype (Rattus norvegicus, UniProt Q05941); test: [3H]-MLA binding assay, rat brain membranes; settings: read-out: Ki, displacement of [3H]-MLA binding
T2 construct: from tissue; host or cells: rat brain membranes (without cortex, striatum and cerebellum)
T2 sequence (Q05941 23-502): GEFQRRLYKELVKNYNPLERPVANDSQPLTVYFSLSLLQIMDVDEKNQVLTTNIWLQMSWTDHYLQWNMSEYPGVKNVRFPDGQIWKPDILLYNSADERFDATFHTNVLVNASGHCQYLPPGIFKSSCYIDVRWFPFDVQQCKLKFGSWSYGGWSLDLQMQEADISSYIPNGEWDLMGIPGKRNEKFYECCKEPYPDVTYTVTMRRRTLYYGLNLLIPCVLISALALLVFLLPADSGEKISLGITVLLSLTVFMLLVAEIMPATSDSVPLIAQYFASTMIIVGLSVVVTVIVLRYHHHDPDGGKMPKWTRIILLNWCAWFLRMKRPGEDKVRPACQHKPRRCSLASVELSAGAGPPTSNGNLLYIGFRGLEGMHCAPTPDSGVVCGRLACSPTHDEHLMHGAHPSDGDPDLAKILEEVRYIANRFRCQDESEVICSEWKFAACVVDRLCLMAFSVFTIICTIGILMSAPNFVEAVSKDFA
Method: Rat brain tissue (without cortex, striatum and cerebellum) was homogenized with a Tekmar Polytron (setting 40) in 20 volumes of ice-cold hypotonic buffer (2 mM HEPES, 14.4 mM NaCl, 0.15 mM KCl, 0.2 mM CaCl2 and 0.1 mM MgSO4, pH=7.5). The homogenate was incubated at 37° C. for 10 minutes and centrifuged at 25,000×g for 15 minutes at 40° C. The pellet was washed 3 times more by resuspension in the 20 volumes of the same buffer and centrifugation at the above parameters. The final pellet was stored at −20° C. under 4.6 ml of the incubation buffer and was suspended just before the incubation with radioligand.
The binding of [^3H]methyllycaconitine ([^3H]MLA), a probe for the α7 neuronal nicotinic acetylcholine receptor subtype, was determined using a modification of the method of Davies et al., “Characterisation of the binding of [^3H]methyllycaconitine: a new radioligand for labelling α7-type neuronal nicotinic acetylcholine receptors”, Neuropharmacology, 38, 679–690 (1999). [^3H]-MLA (25.4 Ci/mmol) was purchased from Tocris Cookson Ltd., Bristol, U.K. Binding was performed in duplicate, in a final volume of 250 μL of the incubation medium, containing 20 mM HEPES, 144 mM NaCl, 1.5 mM KCl, 2 mM CaCl2, 1 mM MgSO4 and 0.05% BSA, pH=7.5. Reaction was initiated by the addition of 100 μl of membrane suspension to the samples containing a desired concentration of test compounds and 2.5 nM [^3H]-MLA (final concentration) and incubated for 2 hours at room temperature. Total binding was measured in the absence of unlabelled ligand, and nonspecific binding was determined in the presence of 1 μM unlabelled MLA. The binding reaction was terminated by dilution of samples with 3 ml of ice-cold incubation buffer followed by immediate filtration through presoaked in 0.5% polyethylenimine glass fiber filters (S&S, grade #32) using a Brandel harvester system. Filters were rinsed three times with 3 ml of ice-cold buffer, transferred to scintillation vials and 4 ml of scintillation cocktail was added.

[4] = rat brain membranes, 2.5 nM [3H]-MLA

In the case of `CCCCCCCCCC[n+]1cccc([C@@H]2CCCN2C)c1` [NDNI, N-n-decylnicotinium iodide, reference compound], the IC50 [1] is reported as over 100000 nM and the Ki [2] is reported as 93 nM.

`CCOCCOCC[n+]1cccc([C@@H]2CCCN2C)c1` [NONB-3O6O, (S)-1-[2-(2-Ethoxy-ethoxy)-ethyl]-3-(1-methyl-pyrrolidin-2-yl)-pyridinium bromide] showed a Ki [2] of 1200 nM.

`CN1CCC[C@H]1c1ccc[n+](CCCCCCC2CCCC2)c1` [NCyNB-5, (S)-1-(6-Cyclopentyl-hexyl)-3-(1-methyl-pyrrolidin-2-yl)-pyridinium bromide hydrobromide salt] was tested, and the Ki [3, 4] was 88700 nM and the Ki [2] was 5540 nM.

Work on `CC(C)=CCCCCC[n+]1cccc([C@@H]2CCCN2C)c1` [NONB-6e7M, (S)-1-(7-Methyl-oct-6-enyl)-3-(1-methyl-pyrrolidin-2-yl)-pyridinium bromide hydrobromide] yielded an IC50 [1] of 1990 nM and a Ki [2] of 450 nM.

For `CCCCC/C=C/CCC[n+]1cccc([C@@H]2CCCN2C)c1` [NDNB-4t, (S)-trans-1-Dec-4-enyl-3-(1-methyl-pyrrolidin-2-yl)-pyridinium bromide], the IC50 [1] was 330 nM and the Ki [2] was 320 nM.

Work on `CCCCCCCC[n+]1cccc([C@@H]2CCCN2C)c1` [NONI, N-n-octylnicotinium iodide, reference compound] yielded an IC50 [1] of 620 nM.

For `CN1CCC[C@H]1c1ccc[n+](CCCCCCC2CCCCC2)c1` [NCyNB-6, (S)-1-(6-Cyclohexyl-hexyl)-3-(1-methyl-pyrrolidin-2-yl)-pyridinium bromide hydrobromide salt], the Ki [3, 4] was 42700 nM and the Ki [2] was 4560 nM.

For `CCCCCCC#CCC[n+]1cccc([C@@H]2CCCN2C)c1` [NDNB-3y, (S)-1-Dec-3-ynyl-3-(1-methyl-pyrrolidin-2-yl)-pyridinium bromide], the IC50 [1] was 2590 nM and the Ki [2] was 810 nM.

In the case of `CCCCC/C=C\CCC[n+]1cccc([C@@H]2CCCN2C)c1` [NDNB-4c, (S)-cis-1-Dec-4-enyl-3-(1-methyl-pyrrolidin-2-yl)-pyridinium bromide hydrobromide salt], the IC50 [1] is reported as 1480 nM and the Ki [2] is reported as 7790 nM.

Work on `CC(C)CCCCCC[n+]1cccc([C@@H]2CCCN2C)c1` [NONB-7M, (S)-1-(7-Methyl-octyl)-3-(1-methyl-pyrrolidin-2-yl)-pyridinium bromide hydrobromide salt] yielded an IC50 [1] of over 100000 nM and a Ki [2] of 440 nM.

`CCCCC#CCC[n+]1cccc([C@@H]2CCCN2C)c1` [NONB-3y, (S)-3-(1-Methyl-pyrrolidin-2-yl)-1-oct-3-ynyl-pyridinium bromide] gave an IC50 [1] of 1680 nM and a Ki [2] of 200 nM.

For `C=CCCCCCC[n+]1cccc([C@@H]2CCCN2C)c1` [NONB-7e, (S)-3-(1-Methyl-pyrrolidin-2-yl)-1-oct-7-enyl-pyridinium bromide], the IC50 [1] was 2610 nM and the Ki [2] was 450 nM.

Work on `CCCC/C=C\CC[n+]1cccc([C@@H]2CCCN2C)c1` [NONB-3c, (S)-cis-3-(1-Methyl-pyrrolidin-2-yl)-1-oct-3-enyl-pyridinium bromide hydrobromide salt] yielded an IC50 [1] of 2020 nM and a Ki [2] of 86 nM.

`CN1CCC[C@H]1c1ccc[n+](CCCCCCC2CCC2)c1` [NCyNB-4, (S)-1-(6-Cyclobutyl-hexyl)-3-(1-methyl-pyrrolidin-2-yl)pyridinium bromide hydrobromide salt] gave a Ki [3, 4] of 30300 nM and a Ki [2] of 7200 nM.

`CCCC/C=C/CC[n+]1cccc([C@@H]2CCCN2C)c1` [NONB-3t, (S)-trans-3-(1-Methyl-pyrrolidin-2-yl)-1-oct-3-enyl-pyridinium bromide hydrobromide salt] gave an IC50 [1] of 3470 nM and a Ki [2] of 3970 nM.

With α-Bungarotoxin [reference compound] the Ki [3] was 7.2 nM.
